This passage reports IC50 results from US20250206761A1, “HALOINDOLE MACROCYCLIC COMPOUNDS FOR THE TREATMENT OF CANCER” (Hoffmann-La Roche Inc., priority 2022, published 2025).

Test [1] deals with T1, KRAS G12C-BRAF complex (Homo sapiens (Human), UniProt P01116+P62937, G12C). Description: KRAS G12C-BRAF NanoBit assay. It is filed as cell-based. To be noted: HEK293 cells, 3 hours of incubation. How it is done: This assay is to measure the ability of tested compounds in disruption of the KRAS G12C-BRAF complex at the cellular level, we established the NanoBit cellular assay in mammalian HEK293 (ATCC) cells.
HEK293 cells were grown and maintained using DMEM medium (Thermo Fisher Scientific) with 10% fetal bovine serum and 1% penicillin/streptomycin. Both KRAS G12C and BRAF RBD were cloned into the NanoBit vectors ([…] vectors system, Promega) with the orientations SnmBit-KRAS G12C and BRAF RBD-LgBit, respectively, and co-transfected into HEK293 cells. Cells were then selected with 100 μg/mL Hygromycin B (10687010, Thermo Fisher) and Blasticidin (5 μg/mL) for 4 weeks to get the stable cell pool.
On the day of the assay, 75 nL of compound solution was presented in a 384-well assay plate as a 16-point 3-fold dilution starting from a final concentration of 30 μM in DMSO. Then cells were seeded at 10,000 cells/25 μL/well in a 384-well plate. After 3 hours of incubation, 6 μL of volume of Nano-Glo® Live Cell Substrate (Promega) was added into each well. Monitor luminescence using ultra384 model in Envision at 20 minutes. Compounds that facilitate disruption of the KRAS G12C-BRAF RBD complex were identified as those eliciting a decrease of luminescence relative to DMSO control wells.

In another test the test system is SW620 (ATCC-CCL-227). Briefly: Cell viability assay, G12V (SW620). It is filed as cell-based, human. To be noted: Homo sapiens, SW-620; KRAS cell viability, SW620, 72 hrs, Cell Counting Kit-8. A digest of the protocol: (§1)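 72-hr compound treatment, 0.5% DMSO final; NCI-H358 seeded 5,000 cells/well, AGS and SW620 2,000 cells/well. Endpoint: CCK-8, 2-hr development, OD450 minus OD650.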
On the technique in general: Tetrazolium assays rely on reduction of a dye to a coloured formazan, in cell work by metabolically active cells.

For test [2], the system named is AGS (ATCC-CRL-1739) cells. Briefly: Cell viability assay, G12D (AGS). It is filed as cell-based, human. To be noted: Homo sapiens, KRAS cell viability, 72 hrs, Cell Counting Kit-8. A digest of the protocol:
as §1

Test [3] has as its system NCI-H358 (ATCC-CRL5807) cells. Briefly: Cell viability assay, G12C (NCI-H358). To be noted: Homo sapiens; KRAS cell viability, NCI-H358, 72 hrs, Cell Counting Kit-8. It is filed as cell-based, human. Summed up: as §1
The target of test [4] is KRAS G12V binding to BRAF (Homo sapiens (Human), UniProt P01116+P62937, G12V). Description: KRAS-BRAF with CYPA (500 nM) interaction assay (TR-FRET), G12V. It is filed as biochemical. Summed up:
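A TR-FRET assay measured how compound, in the presence of CYPA, disrupts binding of GMPPNP-loaded 6His-KRAS G12V to BRAF. The buffer contained 25 mM HEPES PH=7.4, 0.002% Tween20, 0.1% BSA, 100 mM NaCl, 5 mM MgCl2 and 10 μM GMPPNP. Compounds ran as a 16-point 3-fold dilution series from 10 μM for 3 hours.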
(In general: In TR-FRET formats the signal depends on donor and acceptor labels being close together.)

The subject of test [5] is phosphorylation of ERK, KRAS G12V in SW620. Briefly: pERK inhibition assay, KRAS G12V. It is filed as cell-based, human. Summed up: (§2)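 Seeding densities differed per line: 30,000/well for NCJ-H358 and SW620, 20,000/well for AGS, all in RPMI-1640 plus 10% FBS. After attachment overnight, compound was applied for 4 h. Phospho-ERK was then quantified by in-cell ELISA (OD450), with IC50 fitted sigmoidally.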

For test [6], the system named is phosphorylation of ERK, KRAS G12D in AGS cells. Description: pERK inhibition assay, KRAS G12D. It is filed as cell-based, human. To be noted: 4 hours. How it is done: This assay is to measure the ability of test compounds in inhibiting the phosphorylation of ERK, the downstream signaling of KRAS G12C in NCJ-H358 cells, KRAS G12D in AGS cells, and KRAS G12V in SW620. NCJ-H358 (ATCC-CRL5807) cells, AGS (ATCC-CRL-1739) cells, SW620 (ATCC-CCL-227) cells were all grown and maintained using RPMI-1640 medium (Thermo Fisher Scientific) with 10% fetal bovine serum and 1% penicillin/streptomycin. On the day prior to compound addition, cells were plated in tissue culture-treated 96 well plates (Corning-3699) at a density of 30,000 cell/well, 20,000 cell/well, 30,000 cell/well for NCJ-H358, AGS and SW620 respectively, and allowed for attachment overnight. Diluted compounds were then added in a final concentration of 0.5% DMSO. After 4 hours of incubation, the medium was removed, 100 μL of 4% formaldehyde was added, and the assay plates were incubated at room temperature for 20 minutes. The plates were then washed once with phosphate buffered saline (PBS), and permeabilized with 100 μL of chilled methanol for 10 minutes. Non-specific antibody binding to the plates was blocked using 50 μL 1×BSA blocking buffer (Thermo-37520, 10-fold dilution by Phosphate-Buffered Saline Tween (PBST) for at least 1 hour at room temperature.
The amount of phosphor-ERK was determined using an antibody specific for phosphorylated form of ERK. Primary antibody (pERK, CST-4370, Cell Signaling Technology) was diluted 1:300 in blocking buffer, with 50 μL aliquoted to each well, and incubated overnight at 4′° C. Cells was washed five times for 5 minutes with PBST. Secondary antibody ([…] anti-rabbit IgG, CST-7074, Cell Signaling Technology) was diluted 1:1000 in blocking buffer, and 50 μL was added to each well and incubated 1-2 hrs at room temperature. Cells was washed 5 times for 5 minutes with PBST, 100 μL TMB ELISA substrate (abcam-ab171523) were added and gently shake for 20 minutes. 50 μL stop solution (abcam-ab171529) were added, and then read the signal (OD450) by EnVision.
IC50 was determined by fitting a 4-parameter sigmoidal concentration response model.

Test [7] has as its system phosphorylation of ERK, KRAS G12C in NCJ-H358 cells. Briefly: pERK inhibition assay, KRAS G12C. It is filed as cell-based, human. To be noted: 4 hours. Summed up:
as §2

Test [8] addresses KRAS G12D binding to BRAF (Homo sapiens (Human), UniProt P01116+P62937, G12D). Briefly: KRAS-BRAF with CYPA (500 nM) interaction assay (TR-FRET), G12D. It is filed as biochemical.
Test [9] deals with T1, KRAS G12C-BRAF complex. Description: KRAS-BRAF with CYPA (500 nM) interaction assay (TR-FRET), G12C. It is filed as biochemical.
Where [10] appears, read: Homo sapiens, SW-620, SW620, 4 hours.

KRAS G12V binding to BRAF, sequence (P01116-2 other isoform, or with tags, fused parts or gaps G12V): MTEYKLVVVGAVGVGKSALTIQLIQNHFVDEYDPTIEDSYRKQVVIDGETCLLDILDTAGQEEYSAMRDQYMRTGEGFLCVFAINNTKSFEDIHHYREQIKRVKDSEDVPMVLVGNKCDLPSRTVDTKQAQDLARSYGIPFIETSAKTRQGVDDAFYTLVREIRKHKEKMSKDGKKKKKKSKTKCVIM
KRAS G12V binding to BRAF, sequence (P62937 whole entry): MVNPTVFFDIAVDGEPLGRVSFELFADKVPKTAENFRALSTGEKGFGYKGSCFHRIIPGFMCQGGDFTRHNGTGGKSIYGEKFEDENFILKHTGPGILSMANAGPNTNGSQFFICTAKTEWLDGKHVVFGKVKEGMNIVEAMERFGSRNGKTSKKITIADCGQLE
KRAS G12D binding to BRAF, sequence (P01116-2 other isoform, or with tags, fused parts or gaps G12D): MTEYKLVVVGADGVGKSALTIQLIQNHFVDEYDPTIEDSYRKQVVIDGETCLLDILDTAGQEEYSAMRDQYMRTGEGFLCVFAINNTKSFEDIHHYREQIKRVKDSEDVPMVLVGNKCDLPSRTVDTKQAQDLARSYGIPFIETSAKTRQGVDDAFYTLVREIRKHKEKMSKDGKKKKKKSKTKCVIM
KRAS G12D binding to BRAF, sequence (P62937 whole entry): as the sequence (P62937 whole entry) above
T1 sequence (P01116-2 other isoform, or with tags, fused parts or gaps G12C): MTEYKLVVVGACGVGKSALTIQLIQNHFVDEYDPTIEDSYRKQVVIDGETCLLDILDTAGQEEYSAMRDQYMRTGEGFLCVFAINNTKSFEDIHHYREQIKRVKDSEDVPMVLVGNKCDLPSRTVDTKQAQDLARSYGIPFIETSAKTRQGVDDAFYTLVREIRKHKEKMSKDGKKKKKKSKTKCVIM
T1 sequence (P62937 whole entry): as the sequence (P62937 whole entry) above

By IC50 is commonly meant the point on the concentration scale where inhibition reaches its midpoint. On to `CO[C@@H](C)c1ncc(N2CCN(C)CC2)cc1-c1c2c3cc(c(F)cc3n1CC(F)(F)F)-c1csc(n1)C[C@H](NC(=O)[C@@H](COC1CN(C(=O)[C@H](F)Cl)C1)C(C)C)C(=O)N1CCC[C@H](N1)C(=O)OCC(C)(C)C2` (atropisomer, axis not shown; (M)) [Example 13, (2R)-2-[[1-[(2R)-2-chloro-2-fluoro-acetyl]azetidin-3-yl]oxymethyl]-N-[(7S,13S)-24-fluoro-(20M)-20-[2-[(1S)-1-methoxyethyl]-5-(4-methylpiperazin-1-yl)-3-pyridyl]-17,17-dimethyl-8,14-dioxo-21-(2,2,2-trifluoroethyl)-15-oxa-4-thia-9,21,27,28-tetrazapentacyclo-[17.5.2.1^2,5.1^9,13.0^22,26]octacosa-1(25),2,5(28),19,22(26),23-hexaen-7-yl]-3-methyl-butanamide], for which the IC50 at KRAS G12C-BRAF complex [1] was found to be 27 nM; in the test on SW620 (ATCC-CCL-227) it was 23 nM; in test [2], 2390 nM; in [3], 2 nM.
Take `CCn1c(-c2cc(N3CCN(C)CC3)cnc2[C@H](C)OC)c2c3cc(c(F)cc31)-c1csc(n1)C[C@H](NC(=O)[C@H](C(C)C)N1CCC[C@]3(CCN(C(=O)[C@@H](F)Cl)C3)C1=O)C(=O)N1CCC[C@H](N1)C(=O)OCC(C)(C)C2` [Example 22, (2S)-2-[(5R)-2-[(2S)-2-chloro-2-fluoro-acetyl]-6-oxo-2,7-diazaspiro[4.5]decan-7-yl]-N-[(7S,13S)-21-ethyl-24-fluoro-(20M)-20-[2-[(1S)-1-methoxyethyl]-5-(4-methylpiperazin-1-yl)-3-pyridyl]-17,17-dimethyl-8,14-dioxo-15-oxa-4-thia-9,21,27,28-tetrazapentacyclo[17.5.2.1^2,5.1^9,13.0^22,26]octacosa-1(25),2,5(28),19,22(26),23-hexaen-7-yl]-3-methyl-butanamide]: the 50% inhibitory concentration (IC50) is 209 nM on KRAS G12C-BRAF complex [1]; more than 10000 nM in test [4]; 1020 nM in [5] (SW620, 4 hours); 1060 nM in [6]; 53 nM in test [7]; more than 10000 nM in [8]. At KRAS G12C-BRAF complex [9], this compound came in with an IC50 of 199 nM.
Consider `CO[C@@H](C)c1ncc(N2CCN(C)CC2)cc1-c1c2c3cc(c(F)cc3n1CC(F)(F)F)-c1csc(n1)C[C@H](NC(=O)[C@H](COC1CN(C(=O)[C@H](F)Cl)C1)C(C)C)C(=O)N1CCC[C@H](N1)C(=O)OCC(C)(C)C2` (atropisomer, axis not shown; (M)) [Example 14, (2S)-2-[[1-[(2R)-2-chloro-2-fluoro-acetyl]azetidin-3-yl]oxymethyl]-N-[(7S,13S)-24-fluoro-(20M)-20-[2-[(1S)-1-methoxyethyl]-5-(4-methylpiperazin-1-yl)-3-pyridyl]-17,17-dimethyl-8,14-dioxo-21-(2,2,2-trifluoroethyl)-15-oxa-4-thia-9,21,27,28-tetrazapentacyclo[17.5.2.1^2,5.1^9,13.0^22,26]octacosa-1(25),2,5(28),19,22(26),23-hexaen-7-yl]-3-methyl-butanamide], for which the IC50 at KRAS G12C-BRAF complex [1] was 106 nM; in test [5] (setting [10]), 78 nM; in test [6] (Homo sapiens), 170 nM; in [7] (Homo sapiens), 33 nM.
For `CCn1c(-c2cc(N3CCN(CC(F)(F)F)CC3)cnc2[C@H](C)OC)c2c3cc(c(F)cc31)-c1csc(n1)C[C@H](NC(=O)[C@H](C(C)C)N(C)C(=O)[C@H]1CCN(C(=O)[C@H](F)Cl)C1)C(=O)N1CCC[C@H](N1)C(=O)OCC(C)(C)C2` (atropisomer, axis not shown; (M)) [Example 33, (3S)-1-[(2R)-2-chloro-2-fluoro-acetyl]-N-[(1S)-1-[[(7S,13S)-21-ethyl-24-fluoro-(20M)-20-[2-[(1S)-1-methoxyethyl]-5-[4-(2,2,2-trifluoroethyl)piperazin-1-yl]-3-pyridyl]-17,17-dimethyl-8,14-dioxo-15-oxa-4-thia-9,21,27,28-tetrazapentacyclo[17.5.2.1^2,5.1^9,13.0^22,26]octacosa-1(25),2,5(28),19,22(26),23-hexaen-7-yl]carbamoyl]-2-methyl-propyl]-N-methyl-pyrrolidine-3-carboxamide], the IC50 is more than 10000 nM in test [4]; 8 nM in test [5] (setting [10]); 39 nM in the test with SW620 (ATCC-CCL-227); 19 nM in test [6] (Homo sapiens); 4 nM in [7] (Homo sapiens); 338 nM in [2]. The half-inhibitory concentration (IC50) was less than 1 nM in test [3], more than 10000 nM in [8] and 18 nM against KRAS G12C-BRAF complex [9].
For the compound `CCn1c(-c2cc(N3CCN(C)CC3)cnc2[C@H](C)OC)c2c3cc(c(F)cc31)-c1csc(n1)C[C@H](NC(=O)[C@H](C(C)C)N1CC[C@@]3(CCN(C(=O)[C@H](F)Cl)C3)C1=O)C(=O)N1CCC[C@H](N1)C(=O)OCC(C)(C)C2` (atropisomer, axis not shown; (M)) [Example 30, (2S)-2-[(5R)-7-[(2R)-2-chloro-2-fluoro-acetyl]-1-oxo-2,7-diazaspiro[4.4]nonan-2-yl]-N-[(7S,13S)-21-ethyl-24-fluoro-(20M)-20-[2-[(1S)-1-methoxyethyl]-5-(4-methylpiperazin-1-yl)-3-pyridyl]-17,17-dimethyl-8,14-dioxo-15-oxa-4-thia-9,21,27,28-tetrazapentacyclo[17.5.2.1^2,5.1^9,13.0^22,26]octacosa-1(25),2,5(28),19,22(26),23-hexaen-7-yl]-3-methyl-butanamide], the IC50 in test [4] was more than 10000 nM; in test [5] (setting [10]), 100 nM; in the test with SW620 (ATCC-CCL-227) it was 1050 nM; in test [6] (Homo sapiens), 21 nM; in test [7] (Homo sapiens) it was 2 nM; in [2], 435 nM. Besides, the concentration for half-maximal inhibition (IC50) in test [3] was less than 1 nM; in [8], more than 10000 nM; on KRAS G12C-BRAF complex [9] it was 38 nM.
